# Data from patent publication US9169241B2, “Quinolinyloxyphenylsulfonamides” (Max-Planck-Gesellschaft Zur Forderung der Wissenschaften …, priority 2009, dated 2015).
# Like-named read-outs stand apart in the source and are kept apart here.
# Columns and labels:
# Type in all cases: cell-based
# [1] = tested on: SF126; experiment: Matrigel outgrowth assay/branching assay; conditions: Homo sapiens, SF-126, Table Vb, read-out: Total branching inhibition in Matrigel SF126
# Procedure, shortened: (§1)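 Read-out: microscopic images of invasive branching structures at 48 h, 72 h and 96 h. Cells sat on a 3 mg/ml Matrigel layer (set 1 h, 37° C) with compound at 3.125, 1.56 and 0.78 μM or DMSO. A concentration counts as positive only with complete branching inhibition.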
# [2] = tested on: A172; experiment: Matrigel outgrowth assay/branching assay; conditions: Homo sapiens, A 172, Table Vb, read-out: Total branching inhibition in Matrigel A172
# Procedure, shortened: as §1
# [3] = tested on: U118; experiment: Matrigel outgrowth assay/branching assay; conditions: Table Vb, read-out: Total branching inhibition in Matrigel U118
# Procedure, shortened: as §1
# [4] = tested on: cells; experiment: Boyden chamber migration assay (Table VI); conditions: Hs578T cells, 16 h migration
# Procedure, shortened: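 20000 cells seeded in the upper compartment in 0% FCS plus 0.1% BSA and left 16 h to migrate through […] membrane toward 10% FCS medium below. Non-migrated cells swabbed off; cells on the filter underside fixed and counted.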
# [5] = tested on: tumor cell; experiment: Matrigel outgrowth assay/branching assay (Table Va)
# Procedure, shortened: as §1
# [6] = tested on: viable cells in culture; experiment: Cell viability assay at 10 μM (CellTiter-Glo, Table VII); conditions: compound 10 μM, 72 h;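 also: graded A 0-20%; B 21-40%; C 41-60%; D over 60% viable cells relative to DMSO control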
# Procedure, shortened: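 Viable cell number was measured with the CellTiter-Glo Luminescent Cell Viability Assay (Promega), following the manufacturer's protocol, which quantifies ATP as a marker of metabolically active cells. In 96-well plates, 1000 cells/well in 100 μl medium were exposed to compound at 10 μM, or to DMSO control, for 72 h. Values were calculated relative to DMSO-control ATP.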
# [7] = Homo sapiens, C8161 cells, read-out: Total branching inhibition in Matrigel C8161
# [8] = Homo sapiens, Hs-578T, Hs578T cells, read-out: Total branching inhibition in Matrigel Hs578T
# [9] = U118 cells, read-out: Total branching inhibition in Matrigel U118
# [10] = U138 cells, read-out: Total branching inhibition in Matrigel U138
# [11] = Homo sapiens, HCT-116, HCT116 def, read-out: percentage (%) of viable cells HCT 116def
# [12] = Homo sapiens, HCT-116, HCT116 wt, read-out: percentage (%) of viable cells HCT 116wt
# [13] = Homo sapiens, HT-29, HT29, read-out: percentage (%) of viable cells HT29
# [14] = Homo sapiens, NCI-H358, H358, read-out: percentage (%) of viable cells H358
# [15] = Homo sapiens, NCI-H1650, H1650, read-out: percentage (%) of viable cells H1650
# [16] = Homo sapiens, NCI-H1666, H1666, read-out: percentage (%) of viable cells H1666
# [17] = Homo sapiens, NCI-H1975, H1975, read-out: percentage (%) of viable cells H1975
# [18] = Homo sapiens, NCI-H1993, H1993, read-out: percentage (%) of viable cells H1993
# [19] = Homo sapiens, A549, read-out: percentage (%) of viable cells A549
# [20] = Homo sapiens, HCC827, read-out: percentage (%) of viable cells HCC827
# [21] = Homo sapiens, SW480, read-out: percentage (%) of viable cells SW480
# [22] = RKO, read-out: percentage (%) of viable cells RKO
Compound,"IC50 ([4]; Homo sapiens, Hs-578T, 16 h)","IC50 [5, 7]","IC50 [5, 8]","IC50 [5, 9]","IC50 [5, 10]","viability at 10 µM [6, 11]","viability at 10 µM [6, 12]","viability at 10 µM [6, 13]","viability at 10 µM [6, 14]","viability at 10 µM [6, 15]","viability at 10 µM [6, 16]","viability at 10 µM [6, 17]","viability at 10 µM [6, 18]","viability at 10 µM [6, 19]","viability at 10 µM [6, 20]","viability at 10 µM [6, 21]","viability at 10 µM [6, 22]",other results
"COc1cc2c(Oc3ccc(NS(=O)(=O)c4c(Cl)cccc4Cl)cc3F)ccnc2cc1OCCCN1CCCCC1 [Example 6, 2,6-Dichloro-N-{3-fluoro-4-[6-methoxy-7-(3-piperidin-1-yl-propoxy)-quinolin-4-yloxy]-phenyl}-benzenesulfonamide]",–,–,–,–,–,–,–,–,–,–,–,–,–,–,–,–,–,IC100 [1]: ≤ 12.5 µM; IC100 [2]: > 12.5 µM; IC100 [3]: ≤ 12.5 µM
"COc1cc2c(Oc3ccc(NS(=O)(=O)c4cccc(Oc5ccccc5)c4)cc3F)ccnc2cc1OCCCN1CCN(C)CC1 [Example 14, N-(3-Fluoro-4-{6-methoxy-7-[3-(4-methyl-piperazin-1-yl)-propoxy]-quinolin-4-yloxy}-phenyl)-3-phenoxy-benzenesulfonamide]",≤ 5 µM,5 to 50 µM,5 to 50 µM,≤ 5 µM,5 to 50 µM,21 to 40%,0 to 20%,0 to 20%,21 to 40%,21 to 40%,41 to 60%,21 to 40%,0 to 20%,41 to 60%,21 to 40%,0 to 20%,0 to 20%,IC100 [3]: ≤ 12.5 µM
"COc1cc2c(Oc3ccc(NS(=O)(=O)c4ccccc4F)cc3F)ccnc2cc1OCCN1CCOCC1 [Example 81, 2-Fluoro-N-{3-fluoro-4-[6-methoxy-7-(2-morpholin-4-yl-ethoxy)-quinolin-4-yloxy]-phenyl}-benzenesulfonamide]",≤ 5 µM,≤ 5 µM,≤ 5 µM,5 to 50 µM,5 to 50 µM,21 to 40%,21 to 40%,21 to 40%,0 to 20%,21 to 40%,21 to 40%,0 to 20%,21 to 40%,41 to 60%,0 to 20%,0 to 20%,41 to 60%,–
"COc1cc2c(Oc3ccc(NS(=O)(=O)c4c(F)cccc4F)cc3F)ccnc2cc1OCCN1CCOCC1 [Example 82, 2,6-Difluoro-N-{3-fluoro-4-[6-methoxy-7-(2-morpholin-4-yl-ethoxy)-quinolin-4-yloxy]-phenyl}-benzenesulfonamide]",5 to 50 µM,5 to 50 µM,≤ 5 µM,≤ 5 µM,5 to 50 µM,21 to 40%,0 to 20%,0 to 20%,21 to 40%,21 to 40%,41 to 60%,21 to 40%,0 to 20%,> 60%,21 to 40%,21 to 40%,41 to 60%,–
"COc1cc2c(Oc3c(Cl)cc(NS(=O)(=O)c4c(F)cccc4F)cc3Cl)ccnc2cc1OCCCN1CCN(C)CC1 [Example 88, N-(3,5-Dichloro-4-{6-methoxy-7-[3-(4-methyl-piperazin-1-yl)-propoxy]-quinolin-4-yloxy}-phenyl)-2,6-difluoro-benzenesulfonamide]",≤ 5 µM,≤ 5 µM,5 to 50 µM,5 to 50 µM,5 to 50 µM,0 to 20%,41 to 60%,21 to 40%,0 to 20%,41 to 60%,21 to 40%,0 to 20%,0 to 20%,41 to 60%,0 to 20%,21 to 40%,41 to 60%,–
"COc1cc2c(Oc3ccc(NS(=O)(=O)c4ccccc4C(F)(F)F)cc3F)ccnc2cc1OCC(=O)N(C)C [Example 93, 2-{4-[2-Fluoro-4-(2-trifluoromethyl-benzenesulfonylamino)-phenoxy]-6-methoxy-quinolin-7-yloxy}-N,N-dimethyl-acetamide]",5 to 50 µM,≤ 5 µM,≤ 5 µM,≤ 5 µM,5 to 50 µM,21 to 40%,> 60%,0 to 20%,0 to 20%,21 to 40%,21 to 40%,0 to 20%,21 to 40%,> 60%,21 to 40%,0 to 20%,0 to 20%,IC50 [4]: ≤ 5 µM
"COc1cc2c(Oc3ccc(NS(=O)(=O)c4ccccc4C(F)(F)F)cc3F)ccnc2cc1OCCCNC1CCOCC1 [Example 95, N-(3-Fluoro-4-{6-methoxy-7-[3-(tetrahydro-pyran-4-ylamino)-propoxy]-quinolin-4-yloxy}-phenyl)-2-trifluoromethyl-benzenesulfonamide]",≤ 5 µM,≤ 5 µM,≤ 5 µM,5 to 50 µM,5 to 50 µM,21 to 40%,21 to 40%,0 to 20%,0 to 20%,21 to 40%,21 to 40%,0 to 20%,0 to 20%,> 60%,21 to 40%,0 to 20%,0 to 20%,–
"COc1cc2c(Oc3cccc(NS(=O)(=O)c4ccccc4C(F)(F)F)c3)ccnc2cc1OCCCN1CCN(C)CC1 [Example 102, N-(3-{6-Methoxy-7-[3-(4-methyl-piperazin-1-yl)-propoxy]-quinolin-4-yloxy}-phenyl)-2-trifluoromethyl-benzenesulfonamide]",≤ 5 µM,≤ 5 µM,≤ 5 µM,≤ 5 µM,5 to 50 µM,0 to 20%,0 to 20%,0 to 20%,0 to 20%,41 to 60%,41 to 60%,21 to 40%,21 to 40%,41 to 60%,21 to 40%,0 to 20%,21 to 40%,–
